Test results published in patent US10377743B2, “Inhibitors of RAS and methods of use thereof” (Araxes Pharma LLC, priority 2016, dated 2019).

Each compound was assayed against T1, KRAS G12C 1-169, his-tagged protein, GDP-loaded (Homo sapiens, UniProt P01116, G12C) (assay: Biochemical assay: covalent binding (modification %) to KRAS G12C by mass spectrometry). Conditions: 2 hour incubation period, 8 μM compound (compounds 21-92).
T1 construct: KRAS G12C 1-169, his-tagged protein, GDP-loaded
Description: Test compounds were prepared as 10 mM stock solutions in DMSO (Fisher cat# BP-231-100). KRAS G12C 1-169, his-tagged protein, GDP-loaded was diluted to 2 μM or 0.5 μM in buffer (20 mM Hepes, 150 mM NaCl, 1 mM MgCl2). Compounds were tested for activity as follows:
Compounds were diluted to 50× final test concentration in DMSO in 96-well storage plates. Compound stock solutions were vortexed before use and observed carefully for any sign of precipitation. Dilutions were as follow: • For 100 μM final compound concentration, compounds were diluted to 5000 μM (5 μL 10 mM compound stock+5 μL DMSO and mixed well by pipetting. • For 30 μM final compound concentration, compounds were diluted to 1500 μM (3 μL 10 mM compound stock+17 μL DMSO) and mixed well by pipetting. • For 10 μM final compound concentration, compounds were diluted to 500 μM (2 μL 10 mM compound stock+38 μL DMSO) and mixed well by pipetting. 49 μL of the stock protein solution was added to each well of a 96-well PCR plate (Fisher cat#1423027). 1 μl of the diluted 50× compounds were added to appropriate wells in the PCR plate using 12-channel pipettor. Reactions were mixed carefully and thoroughly by pipetting up/down with a 200 μL multi-channel pipettor. The plate was sealed well with aluminum plate seal, and stored in drawer at room temperature for 10 minutes, 30 minutes, 2 hours or 24 hours. 5 μL of 2% formic acid (Fisher cat# A117) in de-ionized H2O was then added to each well followed by mixing with a pipette. The plate was then resealed with aluminum seal and stored on dry ice until analyzed as described below.
The above described assays were analyzed by mass spectrometry according to one of the following two procedures:
The MS instrument is set to positive polarity, 2 GHz resolution, and low mass (1700) mode and allowed to equilibrate for 30 minutes. The instrument is then calibrated, switched to acquisition mode and the appropriate method loaded.
After another 30 minute equilibration time, a blank batch (i.e., buffer) is run to ensure equipment is operating properly. The samples are thawed at 37° C. for 10 minutes, briefly centrifuged, and transfer to the bench top. Wells A1 and H12 are spiked with 1 μL 500 μM internal standard peptide, and the plates centrifuged at 2000×g for 5 minutes. The method is then run and masses of each individual well recorded.
The masses (for which integration data is desired) for each well are pasted into the platemap and exported from the analysis. Masses for the internal standards are exported as well. The data at 50 ppm is extracted for the +19 charge state, and identity of well A1 is assigned using the internal standard spike and integrated. Peak data is exported as a TOF list and the above steps are repeated individually, for the +20, 21, 22, 23, 24, and 25 charge states.
The masses and peak intensities of KRAS G12C protein species were measured using a Dionex RSLCnano system (Thermo Scientific) connected to a Q Exactive Plus mass spectrometer (Thermo Scientific).
[…] of sample was each loaded onto a Aeris™ 3.6 μm WIDEPORE C4 200 Å, LC Column 50×2.1 mm column maintained at 40° C. at a flow rate of 600 μL/min with 20% Solvent A (0.1% formic acid in H2O) and 80% Solvent B (0.1% formic acid in acetonitrile). The liquid chromatography conditions were 20% solvent B for 1 minute, 20% to 60% solvent B for 1.5 minutes, 60% to 90% solvent for 0.5 minute, 90% solvent B for 0.2 minute, 90% to 20% solvent B for 0.2 minute, and then equilibrated for 1.6 minute before the following sample injection. The flow rate was maintained at 600 μL/min throughout the sample analysis.
The mass spectrometer was operated in profile mode at a resolution of 17500, 5 microscans, using 50 msec max injection time and an AGC target of 1×10^6, and a full mass range from 800-1850 m/z was recorded. The HCD trapping gas was optimized for maximum sensitivity for intact proteins. […]

SMILES	Binding %
C=CC(=O)N1CC(N2Cc3ccc(-c4cc(O)cc(F)c4)cc3C2=O)C1 [Compound 33, 2-(1-acryloylazetidin-3-yl)-6-(3-fluoro-5-hydroxyphenyl)isoindolin-1-one]	+ (+ indicates binding activity up to 10%)
C=CC(=O)N1CC(N2Cc3ccc(N4CCC(N(C)C)C4)cc3C2=O)C1 (centres unmarked) [Compound 62, 2-(1-acryloylazetidin-3-yl)-6-(3-(dimethylamino)pyrrolidin-1-yl)isoindolin-1-one]	+ (+ indicates binding activity up to 10%)
C=CC(=O)N1CC(N2Cc3ccc(-c4c(C)ccc5[nH]ncc45)nc3C2=O)C1 [Compound 87, 6-(1-acryloylazetidin-3-yl)-2-(5-methyl-1H-indazol-4-yl)-5,6-dihydro-7H-pyrrolo[3,4-b]pyridin-7-one]	+ (+ indicates binding activity up to 10%)
C=CC(=O)N1CC(N2Cc3ccc(Oc4ccccc4)cc3C2=O)C1 [Compound 45, 2-(1-acryloylazetidin-3-yl)-6-phenoxyisoindolin-1-one]	+ (+ indicates binding activity up to 10%)
C=CC(=O)N1CC(N2Cc3sc(-c4cc(O)cc5ccccc45)cc3C2=O)C1 [Compound 34, 5-(1-acryloylazetidin-3-yl)-2-(3-hydroxynaphthalen-1-yl)-5,6-dihydro-4H-thieno[2,3-c]pyrrol-4-one]	+++ (+++ indicates binding activity greater than 50%)
C=CC(=O)N1CC(N2Cc3ccc(N4CCCC(N(C)C)C4)cc3C2=O)C1 (centres unmarked) [Compound 78, 2-(1-acryloylazetidin-3-yl)-6-(3-(dimethylamino)piperidin-1-yl)isoindolin-1-one]	+ (+ indicates binding activity up to 10%)
C=CC(=O)N1CC(N2Cc3ccc(-c4cc(O)cc5ccccc45)cc3C2)C1 [Compound 51, 1-(3-(5-(3-hydroxynaphthalen-1-yl)isoindolin-2-yl)azetidin-1-yl)prop-2-en-1-one]	+ (+ indicates binding activity up to 10%)
C=CC(=O)N1CC(N2Cc3ccc(N4CCCC(O)C4)cc3C2=O)C1 (centres unmarked) [Compound 72, 2-(1-acryloylazetidin-3-yl)-6-(3-hydroxypiperidin-1-yl)isoindolin-1-one]	+ (+ indicates binding activity up to 10%)
C=CC(=O)N1CC(N2Cc3cc(C(N)=O)c(-c4cc(O)cc5ccccc45)cc3C2=O)C1 [Compound 63, 2-(1-acryloylazetidin-3-yl)-6-(3-hydroxynaphthalen-1-yl)-1-oxoisoindoline-5-carboxamide]	++ (++ indicates binding activity from 10 to 50%)
C=CC(=O)N1CC(N2Cc3ccc(-c4cc(O)cc5ccccc45)nc3C2=O)C1 [Compound 82, 6-(1-acryloylazetidin-3-yl)-2-(3-hydroxynaphthalen-1-yl)-5,6-dihydro-7H-pyrrolo[3,4-b]pyridin-7-one]	+ (+ indicates binding activity up to 10%)

Same assay, conditions: 2 hour incubation period, 10 μM compound (compounds 1-20)

SMILES	Binding %
C=CC(=O)N1CC(N2Cc3ccc(-c4cc(O)ccc4Cl)cc3C2=O)C1 [Compound 10, 2-(1-acryloylazetidin-3-yl)-6-(2-chloro-5-hydroxyphenyl)isoindolin-1-one]	+++ (+++ indicates binding activity greater than 50%)
C=CC(=O)N1CC(N2Cc3ccc(-c4cc(O)cc5ccccc45)cc3C2=O)C1 [Compound 2, 2-(1-acryloylazetidin-3-yl)-6-(3-hydroxynaphthalen-1-yl)isoindolin-1-one]	+++ (+++ indicates binding activity greater than 50%)
C=CC(=O)N1CC(N2Cc3ccc(-c4c(C)ccc5cn[nH]c45)cc3C2=O)C1 [Compound 8, 2-(1-acryloylazetidin-3-yl)-6-(6-methyl-1H-indazol-7-yl)isoindolin-1-one]	+ (+ indicates binding activity up to 10%)
C=CC(=O)N1CC(N2Cc3cc(F)c(-c4cc(O)cc5ccccc45)cc3C2=O)C1 [Compound 19, 2-(1-acryloylazetidin-3-yl)-5-fluoro-6-(3-hydroxynaphthalen-1-yl)isoindolin-1-one]	+++ (+++ indicates binding activity greater than 50%)
